Read-outs that look alike come from different tables or passages of the source. Each block holds one molecule with its values, some of them ahead of it. Where a SMILES comes first, the peptide text is derived from it.
Key:
[1] = Test for proteolytic degradation of the peptide compounds in ovine serum; format: in vitro ADME, ewes of the Ile de France breed; conditions: for remaining at 3 h, 50 μM: female, Ile de France, sheep
Description: In order to carry out this test, blood was collected from the jugular vein of ewes of the Ile de France breed, and centrifuged. The supernatant (serum) was stored at −20° C. until use.
The degradation in this serum of the various peptide compounds in accordance with the invention and of the comparative peptide compounds is monitored over time. To this effect, each peptide compound to be analyzed and the internal calibrant (L-phenylalaninol) are dissolved in milliQ water (0.5 mM and 6.6 mM, respectively). The commercial protease inhibitor cocktail (Sigma, ref. P8340) is supplied in solution in DMSO.
The serum and the stock solutions of peptide compounds are preheated at 39° C. for 30 minutes. Each solution of peptide compound (50 μl, i.e. a final concentration in the serum of 50 μM) and the solution of internal calibrant (25 μl) are mixed with 425 μl of serum and incubated at 39° C. The proteolytic degradation kinetics of the compounds are monitored by taking a sample, at various given times, of 75 μl of the solution, which are diluted with 150 μL of acetonitrile in order to precipitate the serum proteins. The suspension obtained is centrifuged at 14 000 revolutions/min for 10 min at 4° C.
The amount of peptide compound intact after incubation is determined by integration of the area of the peak, using L-phenylalaninol as internal calibrant. It is expressed as % of the area of the peak at time t=0.
The value corresponding to 100% of intact peptide compound is obtained by mixing 420 μl of serum, 5 μl of the inhibitor cocktail and 25 μl of the phenylalaninol solution, followed by 50 μl of peptide compound, and then by immediately treating the resulting solution according to the protocol described above.

[2] = test system: plasma LH concentration; experiment: In vivo activity test: plasma LH concentration in ewes after injection of the peptide compound; set-up: species or system ewes of the Ile de France breed; conditions: for increase in the plasma concentration of LH (% of Comp.1 maximum stimulation): FIG. 4
Description: The tests were carried out on ewes of the Ile de France breed, either in the anestrus period for the comparative compounds Comp.1 and Comp.3, or in the estrus period for the comparative compound Comp.1 and for the compounds in accordance with the invention C1, C4 and C6. The ewes used in the estrus period were pretreated with a vaginal sponge containing 20 mg of fluorogestone acetate (Chronogest CR sponge, Intervet) in order to block the secretion of LH and to stimulate a luteal phase.
Five days after the insertion of the sponge (for the animals in the estrus period) or the day before the test (for the animals in the anestrus period), a catheter was inserted into the jugular vein of the animal. On the day of the test, the peptide compound to be tested was injected into the catheter, at the desired dose (5 nmol/ewe), diluted in 1 ml of physiological solution. Physiological saline containing heparin (3 ml) was injected immediately after the peptide compound in order to rinse the catheter and to carry all of the compound into the animal's bloodstream.
A negative control (T) consisting of physiological solution alone was also carried out.
Before and following the injection of the test compound, blood samples were taken at variable intervals between 10 min and 1 h, for a period of between 3 h and 30 h.
The blood samples were centrifuged, and the plasma was stored at −20° C. until it was used to measure the LH concentration, according to an RIA method described in the literature (Caraty et al., 2007).
The tests were carried out on ewes of the Ile de France breed in the anestrus period, in the same way as above with reference to the 1st experiment (without any treatment with progesterone). In particular, for all the animals, the day before the test, a catheter was inserted into the jugular vein of the animal. On the day of the test, the peptide compound to be tested was injected into the catheter, at the desired dose (5 nmol/ewe), diluted in 1 ml of physiological solution.
The tests were carried out on ewes of the Ile de France breed in the anestrus period, as indicated above with reference to the 1st experiment (without any treatment with progesterone). In particular, for all the animals, the day before the test, a catheter was inserted into the jugular vein of the animal. On the day of the test, the peptide compound to be tested was injected into the catheter, at the desired dose, diluted in 1 ml of physiological solution. For each compound, the following three doses were tested: 1 nmol/ewe, 5 nmol/ewe and 15 nmol/ewe. […]
Before and following the injection of the test compound, blood samples were taken at variable intervals between 10 min and 1 h, for a period of 10 h.
The blood samples were centrifuged, and the plasma was stored at −20° C. until it was used to measure the LH concentration, according to the RIA method described in the literature (Caraty et al., 2007).

[3] = biological target: T1, human KISS1R receptor (Homo sapiens, UniProt Q969F8); experiment: Intracellular calcium mobilization test in HEK293A cells expressing human KISS1R; format: cell-based
T1 construct: expressed in transfected cells
Description: In order to carry out the in vitro tests for the activity of the peptide compounds in accordance with the invention and the comparative compounds, the HEK293A cell line (ATCC, American Type Culture Collection, Manassas, Va., USA) was stably transfected with the human KISS1R receptor (Genbank accession number: NM_032551). The pcDNA3.1 vector (Invitrogen, Cergy Pontoise, France), into which the sequence of human KISS1R has been inserted with a 5′ HA tag at position 957-2150 bp, was used for the transfection. The transfection and the selection of the clones were carried out as described in the literature (Mancini et al. 2009, and Invitrogen website).
In order to verify the agonist activity and to measure the EC50 of the peptide compounds according to the invention, the following protocol was carried out.
HEK293A cells expressing the human KISS1R receptor were seeded into a 96-well plate (μClear® black plate) at the concentration of 40 000 cells/well, and placed in an incubator at 37° C. After 48 hours, the medium was changed and the cells were incubated with the fluorescent dye Fluo-4NW, according to the instructions of the manufacturer (Molecular Probe).
After having measured the basal fluorescence, 5 μl of the 20× solution containing the test compound were added to each well (containing 95 μl) so as to obtain the desired concentration. The variations in fluorescence were recorded every 7 seconds for 5-7 minutes with a plate reader (PolarStar Optima, BMG Labtech). Activity-concentration curves were generated using the GraphPad Prism 5 software, and the EC50 of each compound was calculated by adjusting the curve to a sigmoid.

[4] = test system: LH peak / ovulation; conditions: cited from earlier work
[5] = 2nd experiment, ewes in the anestrus period, 5 nmol/ewe intravenous, FIGS. 6a-6d
[6] = 1st experiment, ewes in the estrus period, 5 nmol/ewe intravenous
[7] = intravenous, ewes at the end of the follicular phase

T1 sequence (Q969F8 whole entry): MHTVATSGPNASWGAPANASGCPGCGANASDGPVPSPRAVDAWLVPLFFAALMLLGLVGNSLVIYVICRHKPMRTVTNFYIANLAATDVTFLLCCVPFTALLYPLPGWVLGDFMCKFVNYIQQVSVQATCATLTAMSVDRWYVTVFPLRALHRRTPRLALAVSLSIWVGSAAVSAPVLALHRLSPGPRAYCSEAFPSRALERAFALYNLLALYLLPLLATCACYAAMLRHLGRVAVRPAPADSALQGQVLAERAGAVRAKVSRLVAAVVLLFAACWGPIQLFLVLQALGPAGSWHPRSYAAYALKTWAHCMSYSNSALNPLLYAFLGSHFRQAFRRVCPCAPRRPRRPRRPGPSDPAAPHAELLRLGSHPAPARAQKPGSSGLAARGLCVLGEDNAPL

remaining at 3 h, 50 μM ([1]; serum): 46%
Molecule: CC(=O)N[C@@H](Cc1ccc(O)cc1)C(=O)N[C@@H](CC(N)=O)C(=O)N[C@@H](Cc1c[nH]c2ccccc12)C(=O)N[C@@H](CC(N)=O)C(=O)N[C@@H](CO)C(=O)N[C@@H](Cc1ccccc1)C(=O)NCc1cn([C@@H](CC(C)C)C(=O)N[C@@H](CCCNC(=N)N)C(=O)N[C@@H](Cc2ccc(O)cc2)C(N)=O)nn1 [Compound C2, Ac-Tyr-Asn-Trp-Asn-Ser-Phe-GlyΨ[Tz]Leu-Arg-Tyr-NH2] (HELM PEPTIDE1{[ac].Y.N.W.N.S.F.[CC(C)C[C@@H](C(=O)[*:2])n1cc(CN[*:1])nn1].R.Y.[am]}$$$$V2.0)
lifetime in ovine serum (in words) [1]: clearly prolonged in comparison with that of the comparative peptide compound Comp.3 | total increase in the plasma LH concentration (AUC) over 9 hours ([2]; 2nd experiment, ewes in the anestrus period, 5 nmol/ewe intravenous, FIG. 7): significantly more active than the comparative compounds | duration of action (LH concentration over time) [2, 5]: sustained for longer over time than the comparative compounds Comp.1 and Comp.3

Molecule: CCCCCCCCCCCCCCCC(=O)N[C@@H](CCC(=O)NCCCC[C@H](NC(=O)[C@H](Cc1ccc(O)cc1)NC(C)=O)C(=O)N[C@@H](Cc1c[nH]c2ccccc12)C(=O)N[C@@H](CC(N)=O)C(=O)N[C@@H](CO)C(=O)N[C@@H](Cc1ccccc1)C(=O)NCc1cn([C@@H](CC(C)C)C(=O)N[C@@H](CCCNC(=N)N)C(=O)N[C@@H](Cc2ccc(O)cc2)C(N)=O)nn1)C(=O)O [Compound C8, Ac-Tyr-Lys(γ-(N-hexadecanoyl-Glu-OH))-Trp-Asn-Ser-Phe-GlyΨ[Tz]Leu-Arg-Tyr-NH2] (HELM PEPTIDE1{[ac].Y.K.W.N.S.F.[CC(C)C[C@@H](C(=O)[*:2])n1cc(CN[*:1])nn1].R.Y.[am]}|PEPTIDE2{[CCCCCCCCCCCCCCCC(=O)[*:2]].[gGlu]}$PEPTIDE1,PEPTIDE2,3:R3-2:R2$$$V2.0)
duration of action (LH concentration over time) ([2]; 3rd experiment, ewes in the anestrus period, 1, 5 and 15 nmol/ewe intravenous, FIGS. 8a, 8b): even further sustained over time, and very significantly, than the compound C2 | LH secretion (AUC) ([2]; 3rd experiment, ewes in the anestrus period, 1, 5 and 15 nmol/ewe intravenous, FIGS. 9a, 9b): even more active than the compound C2 | LH secretion into the plasma after intramuscular injection ([2]; 4th experiment, ewes in the estrus period, 15 nmol/ewe intramuscular versus intravenous, FIG. 10): also effective, in vivo, by intramuscular injection

remaining at 3 h, 50 μM ([1]; serum): 59%
Molecule: CNC(=N)NCCC[C@H](NC(=O)[C@H](CC(C)C)n1cc(CNC(=O)[C@H](Cc2ccccc2)NC(=O)[C@H](CO)NC(=O)[C@H](CC(N)=O)NC(=O)[C@H](CCCCNC(C)=O)NC(=O)[C@H](CC(N)=O)NC(=O)[C@H](Cc2ccc(O)cc2)NC(C)=O)nn1)C(=O)N[C@@H](Cc1ccc(O)cc1)C(N)=O [Compound C4, Ac-Tyr-Asn-Lys(Ac)-Asn-Ser-Phe-GlyΨ[Tz]Leu-Arg(Me)-Tyr-NH2] (HELM PEPTIDE1{[ac].Y.N.K.N.S.F.[CC(C)C[C@@H](C(=O)[*:2])n1cc(CN[*:1])nn1].[CNC(=N)NCCC[C@H](N[*:1])C(=O)[*:2]].Y.[am]}|PEPTIDE2{[ac]}$PEPTIDE1,PEPTIDE2,4:R3-1:R2$$$V2.0)
increase in the plasma concentration of LH (% of Comp.1 maximum stimulation) [2, 6]: more active than the comparative compounds Comp.1 and Comp.3

remaining at 3 h, 50 μM ([1]; serum): 50% | EC50 ([3]; HEK293A cells expressing human KISS1R, Fluo-4NW, read-out: EC50, intracellular calcium mobilization of cells expressing human KISS1R (Table 2)): 0.01 nM
Molecule: CNC(=N)NCCC[C@H](NC(=O)[C@H](CC(C)C)n1cc(CNC(=O)[C@H](Cc2ccccc2)NC(=O)[C@@H](NC(=O)[C@H](CC(N)=O)NC(=O)[C@@H](Cc2c[nH]c3ccccc23)NC(=O)[C@@H](Cc2ccc(O)cc2)NC(C)=O)[C@@H](C)O)nn1)C(=O)N[C@@H](Cc1c[nH]c2ccccc12)C(N)=O [Compound C6, Ac-DTyr-DTrp-Asn-Thr-Phe-GlyΨ[Tz]Leu-Arg(Me)-Trp-NH2] (HELM PEPTIDE1{[ac].[dY].[dW].N.T.F.[CC(C)C[C@@H](C(=O)[*:2])n1cc(CN[*:1])nn1].[CNC(=N)NCCC[C@H](N[*:1])C(=O)[*:2]].W.[am]}$$$$V2.0)
increase in the plasma concentration of LH (% of Comp.1 maximum stimulation) [2, 6]: more active than the comparative compounds Comp.1 and Comp.3

Molecule: KP10: decapeptide kisspeptin-10, endogenous KISS1R ligand; species form not stated for the cited ewe studies
induction of an LH peak [4, 7]: capable of inducing an LH peak | synchronization of ovulations [4, 7]: synchronized to within one hour | time from LH peak to ovulations [4, 7]: 21 h | reactivation of the gonadotropic axis and ovulation ([4]; prolonged infusion, period of sexual rest (seasonal anestrus)): capable of reactivating the gonadotropic axis and inducing ovulation

Molecule: Ac-YNWNSFGLRY-NH2 [Comp. 3, reference compound]
remaining at 3 h, 50 μM ([1]; ovine serum, 39° C., 50 μM, 3 h, % of the area of the HPLC peak at time t = 0, read-out: % of peptide intact after 3 h of incubation in the serum): 11% | human KISS1R-stimulating power (in words) ([3]; calcium mobilization, compared with Comp.1): more powerful than Comp.1 (mKP10) in vitro | efficiency and duration of the elevation of the plasma LH concentration ([2]; 1st experiment, ewes in the anestrus period, 5 nmol/ewe intravenous, FIG. 3, versus Comp.1): only minimally increases

Molecule: CC(C)C[C@@H](C(=O)N[C@@H](CCCNC(=N)N)C(=O)N[C@@H](Cc1ccc(O)cc1)C(N)=O)n1cc(CNC(=O)[C@H](Cc2ccccc2)NC(=O)[C@H](CO)NC(=O)[C@H](CC(N)=O)NC(=O)[C@H](Cc2c[nH]c3ccccc23)NC(=O)[C@H](CC(N)=O)NC(=O)[C@@H](N)Cc2ccc(O)cc2)nn1 [Compound C1, H-Tyr-Asn-Trp-Asn-Ser-Phe-GlyΨ[Tz]Leu-Arg-Tyr-NH2] (HELM PEPTIDE1{Y.N.W.N.S.F.[CC(C)C[C@@H](C(=O)[*:2])n1cc(CN[*:1])nn1].R.Y.[am]}$$$$V2.0)
increase in the plasma concentration of LH (% of Comp.1 maximum stimulation) [2, 6]: more active than the comparative compounds Comp.1 and Comp.3 | duration of action (LH concentration over time) [2, 5]: sustained for longer over time than the comparative compounds Comp.1 and Comp.3

From patent US9884891B2, “KISS1R receptor agonist compounds and use thereof for inducing ovulation in mammals” (INSTITUT NATIONAL DE LA RECHERCHE AGRONOMIQUE, priority 2013, dated 2018)
